Data taken from PubChem BioAssay AID1963425 (Molecular Pharmacology Branch, DTP, NCI, 2024).

System: 323965-272-R-J2-PDC complex spheroid growth, % test/control
Assay: Anticancer human tumor 323965-272-R-J2-PDC patient-derived pancreatic carcinoma cell line growth inhibition [Asc]
Conditions: for IC50: curve of first compound; for viability, T/C: stronger effect = lower value
Summary of the method: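 Stromal components (HUVEC and hMSC) are co-assembled with the cancer cells into multicellular spheroids. Drugs are then added singly or paired, at concentrations falling by half-log increments from a clinically achievable maximum, capped at 10 microM without known Cmax.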
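Further: compound exposure lasted 7 days starting three days after spheroid seeding.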
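Wherever viability, T/C is given: 100% = DMSO vehicle control wells with viability set relative to vehicle.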

NC(=O)C(=Cn1cnc(-c2cc(C(F)(F)F)cc(C(F)(F)F)c2)n1)c1cncnc1 + CCN1C(C(=O)NC23CCC(C(=O)O)(CC2)CC3)C(c2cccc(Cl)c2F)C2(C(=O)Nc3cc(Cl)ccc32)C12CCCCC2
IC50 (second compound 0.00949 µM): > 300 nM | IC50 (second compound 0.03 µM): > 300 nM | IC50 (second compound 0.0949 µM): > 300 nM | IC50 (second compound 0.3 µM): > 300 nM | IC50 (second compound 0.949 µM): > 300 nM | IC50 (second compound 3 µM): > 300 nM | viability, T/C (second compound 0.00949 µM, first compound 0.000949 µM): 108% | viability, T/C (second compound 0.00949 µM, first compound 0.003 µM): 100% | viability, T/C (second compound 0.00949 µM, first compound 0.00949 µM): 98% | viability, T/C (second compound 0.00949 µM, first compound 0.03 µM): 105% | viability, T/C (second compound 0.00949 µM, first compound 0.0949 µM): 86.3% | viability, T/C (second compound 0.00949 µM, first compound 0.3 µM): 57.9% | viability, T/C (second compound 0.03 µM, first compound 0.000949 µM): 109% | viability, T/C (second compound 0.03 µM, first compound 0.003 µM): 105% | viability, T/C (second compound 0.03 µM, first compound 0.00949 µM): 96.8% | viability, T/C (second compound 0.03 µM, first compound 0.03 µM): 99.8% | viability, T/C (second compound 0.03 µM, first compound 0.0949 µM): 90% | viability, T/C (second compound 0.03 µM, first compound 0.3 µM): 68% | viability, T/C (second compound 0.0949 µM, first compound 0.000949 µM): 111% | viability, T/C (second compound 0.0949 µM, first compound 0.003 µM): 101% | viability, T/C (second compound 0.0949 µM, first compound 0.00949 µM): 109% | viability, T/C (second compound 0.0949 µM, first compound 0.03 µM): 100% | viability, T/C (second compound 0.0949 µM, first compound 0.0949 µM): 91.7% | viability, T/C (second compound 0.0949 µM, first compound 0.3 µM): 55.5% | viability, T/C (second compound 0.3 µM, first compound 0.000949 µM): 101% | viability, T/C (second compound 0.3 µM, first compound 0.003 µM): 103% | viability, T/C (second compound 0.3 µM, first compound 0.00949 µM): 101% | viability, T/C (second compound 0.3 µM, first compound 0.03 µM): 99% | viability, T/C (second compound 0.3 µM, first compound 0.0949 µM): 88.7% | viability, T/C (second compound 0.3 µM, first compound 0.3 µM): 55.2% | viability, T/C (second compound 0.949 µM, first compound 0.000949 µM): 103% | viability, T/C (second compound 0.949 µM, first compound 0.003 µM): 93.9% | viability, T/C (second compound 0.949 µM, first compound 0.00949 µM): 84.3% | viability, T/C (second compound 0.949 µM, first compound 0.03 µM): 87.7% | viability, T/C (second compound 0.949 µM, first compound 0.0949 µM): 85.7% | viability, T/C (second compound 0.949 µM, first compound 0.3 µM): 53.6% | viability, T/C (second compound 3 µM, first compound 0.000949 µM): 94% | viability, T/C (second compound 3 µM, first compound 0.003 µM): 101% | viability, T/C (second compound 3 µM, first compound 0.00949 µM): 89.5% | viability, T/C (second compound 3 µM, first compound 0.03 µM): 85.2% | viability, T/C (second compound 3 µM, first compound 0.0949 µM): 82.3% | viability, T/C (second compound 3 µM, first compound 0.3 µM): 53%

O=C(c1ccc(F)c(F)c1Nc1ccc(I)cc1F)N1CC(O)([C@@H]2CCCCN2)C1 + CNC(C)C(=O)NC1CN(S(=O)(=O)c2cccc(S(=O)(=O)N3CCC4CCC(C(=O)NC(c5ccccc5)c5ccccc5)N4C(=O)C(NC(=O)C(C)NC)C3)c2)CCC2CCC(C(=O)NC(c3ccccc3)c3ccccc3)N2C1=O
IC50 (second compound 0.00316 µM): 97.8 nM | IC50 (second compound 0.01 µM): 77.1 nM | IC50 (second compound 0.0316 µM): 80.6 nM | IC50 (second compound 0.1 µM): 92.4 nM | IC50 (second compound 0.316 µM): 70.6 nM | IC50 (second compound 1 µM): 53.5 nM | viability, T/C (second compound 0.00316 µM, first compound 0.00316 µM): 117% | viability, T/C (second compound 0.00316 µM, first compound 0.01 µM): 99.1% | viability, T/C (second compound 0.00316 µM, first compound 0.0316 µM): 77.5% | viability, T/C (second compound 0.00316 µM, first compound 0.1 µM): 50.1% | viability, T/C (second compound 0.00316 µM, first compound 0.316 µM): 27.3% | viability, T/C (second compound 0.00316 µM, first compound 1 µM): 18.5% | viability, T/C (second compound 0.01 µM, first compound 0.00316 µM): 105% | viability, T/C (second compound 0.01 µM, first compound 0.01 µM): 90.3% | viability, T/C (second compound 0.01 µM, first compound 0.0316 µM): 60.8% | viability, T/C (second compound 0.01 µM, first compound 0.1 µM): 47.7% | viability, T/C (second compound 0.01 µM, first compound 0.316 µM): 28.2% | viability, T/C (second compound 0.01 µM, first compound 1 µM): 13.2% | viability, T/C (second compound 0.0316 µM, first compound 0.00316 µM): 94.5% | viability, T/C (second compound 0.0316 µM, first compound 0.01 µM): 96.3% | viability, T/C (second compound 0.0316 µM, first compound 0.0316 µM): 64.3% | viability, T/C (second compound 0.0316 µM, first compound 0.1 µM): 47.9% | viability, T/C (second compound 0.0316 µM, first compound 0.316 µM): 25.7% | viability, T/C (second compound 0.0316 µM, first compound 1 µM): 14.4% | viability, T/C (second compound 0.1 µM, first compound 0.00316 µM): 102% | viability, T/C (second compound 0.1 µM, first compound 0.01 µM): 90.9% | viability, T/C (second compound 0.1 µM, first compound 0.0316 µM): 81.6% | viability, T/C (second compound 0.1 µM, first compound 0.1 µM): 46.4% | viability, T/C (second compound 0.1 µM, first compound 0.316 µM): 23.6% | viability, T/C (second compound 0.1 µM, first compound 1 µM): 13.1% | viability, T/C (second compound 0.316 µM, first compound 0.00316 µM): 110% | viability, T/C (second compound 0.316 µM, first compound 0.01 µM): 82.8% | viability, T/C (second compound 0.316 µM, first compound 0.0316 µM): 71.5% | viability, T/C (second compound 0.316 µM, first compound 0.1 µM): 41.8% | viability, T/C (second compound 0.316 µM, first compound 0.316 µM): 22% | viability, T/C (second compound 0.316 µM, first compound 1 µM): 11.3% | viability, T/C (second compound 1 µM, first compound 0.00316 µM): 92.8% | viability, T/C (second compound 1 µM, first compound 0.01 µM): 85.6% | viability, T/C (second compound 1 µM, first compound 0.0316 µM): 57.3% | viability, T/C (second compound 1 µM, first compound 0.1 µM): 39% | viability, T/C (second compound 1 µM, first compound 0.316 µM): 18.8% | viability, T/C (second compound 1 µM, first compound 1 µM): 9.3%
